The values below come from PMC5540946, “Stress-Driven Discovery of Novel Cryptic Antibiotics from a Marine Fungus Penicillium sp. BB1122” (Frontiers in Microbiology, 2017).

Converted amounts (≈) assume the structure as drawn. Like-named read-outs stand apart in the source and are kept apart here.

As usually defined, the MIC is the lowest concentration found to suppress growth. For orientation: MBC means the lowest tested concentration that kills the bacteria rather than only halting them. Usually IC50 stands for the point on the concentration scale where inhibition reaches its midpoint.

Holding throughout (type): cell-based
The test system of assay [1] is P. aeruginosa [CMCC(B)10104]. Put plainly: Broth dilution antibacterial assay (MIC, MBC by subculture) against P. aeruginosa. The note with it: Pseudomonas aeruginosa; for MIC: 18 h, broth dilution, 37°C, triplicate; for MBC: lowest concentration killing 99.9% of original inoculum. As to the method:
(§1) The conventional broth dilution assay was used to evaluate the antibacterial activities. Three clinical pathogens namely MRSA, P. aeruginosa [CMCC(B)10104], and K. pneumoniae [CMCC(B)46117] were cultured and left overnight to grow. Each pathogenic culture was then diluted in 0.9% saline to an inoculum density of 5 × 10^5 cfu by comparison with a McFarland standard. Tetracycline was dissolved in Mueller–Hinton broth with a starting concentration of 512 μg/mL and was used as positive control whereas methanol was used as negative control. A total of 125 μL of MHB was distributed into the 96-well plates. A total of 125 μL of the different samples were dispensed into well 1 and serially diluted across the plate. Ultimately, addition of 125 μL of the bacterial inoculum was performed and the plates were incubated at 37°C for 18 h. The bacteriostatic abilities of the compounds were noted as MICs which were done in triplicate. Five milligrams per milliliter of methanolic solution of 3-[4,5-dimethylthiazol-2-yl]-2,5-diphenyltetrazolium bromide (MTT; Lancaster) was used to detect bacterial growth by a change in color from yellow to blue ([Appendino et al., 2008]).
(§2) Ten microliters of broth with no visible growth were taken from the wells and sub-cultured on nutrient agar plates. The negative control consisted of nutrient agar and the inoculum which was then compared with the number of colonies on the agar. The bactericidal abilities of the compounds were noted as MBCs which was equal to the lowest concentration of the samples which killed 99.9% of the original inoculum ([Clinical and Laboratory Standards Institute, 2014]).
Background: Dilution methods test growth across graded concentrations, often in twofold steps.

Assay [2] has as its system methicillin resistant Staphylococcus aureus (MRSA). Put plainly: Broth dilution antibacterial assay (MIC, MBC by subculture) against MRSA. Conditions: for MIC: 18 h. As to the method: as §1, §2
Assay [3] concerns K. pneumoniae [CMCC(B)46117]. Put plainly: Broth dilution antibacterial assay (MIC, MBC by subculture) against K. pneumoniae. The note with it: Klebsiella pneumoniae. As to the method:
as §1, §2

The subject of assay [4] is Human liver cell line LO2. Put plainly: Cytotoxicity assay (MTT). The note with it: normal liver cell line LO2, MTT, triplicate. As to the method:
Human liver cell line LO2 was obtained from the Institute of Biochemistry and Cell Biology (Chinese Academy of Sciences). LO2 cells were maintained in RPMI 1640 containing 10% fetal bovine serum (FBS), 100 units/mL penicillin and 100 units/mL streptomycin. All the cells were grown in a humidified cell incubator with an atmosphere of 5% CO2 at 37°C and subcultured with 0.25% trypsin + 0.02% EDTA. MTT, dimethyl sulfoxide (DMSO), ribonuclease (RNase), propidium iodide (PI), Annexin V-FITC/PI kit were obtained from Sigma. RPMI 1640, DMEM, FBS were purchased from Gibco. Hoechst, trypsin, and the pan caspase inhibitor z-VAD-FMK were obtained from Beyotime Institute of Biotechnology. Compounds were dissolved in DMSO and diluted to the proper concentrations before use, with the concentration of DMSO kept below 0.1% in all assays. Cell viability was measured by the MTT method as previously described, with some modifications ([Jiang et al., 2013]). Briefly, cells were seeded in 96-well microtiter plates at a density of 5 × 10^3 cells/well for 24 h. After drug treatment for the indicated times, cells were incubated with MTT (0.5 mg/mL) for 4 h. The formazan precipitate was dissolved in 150 μL DMSO, and the absorbance was detected at 490 nm with a Sunrise microplate reader (Tecan Group Ltd.). DMSO (0.1%) was used as negative control for all assays. Each test was performed in triplicate.

Where [5] appears, read: broth dilution, 37°C, 18 h, triplicate.
Setting [6] is: lowest concentration killing 99.9% of original inoculum, read-out: MBC.
[7] abbreviates: lowest concentration killing 99.9% of original inoculum.

`COc1cc(=O)oc(C=CC=CC=CC2(C)OC3(C)C(C)OC(C)(C2O)C3O)c1C` (stereo not shown) [Compound 5, 10Z-isocitreoviridinol]: the minimal inhibitory concentration (MIC) turned out to be 8 µg/mL (≈ 19.1 µM) in assay [1] (read-out: MIC), 1 µg/mL (≈ 2.39 µM) in assay [2] (Staphylococcus aureus) and 64 µg/mL (≈ 153 µM) in assay [3] (setting [5]). Further, the minimal bactericidal concentration (MBC) is 16 µg/mL (≈ 38.2 µM) in assay [1] (read-out: MBC), 2 µg/mL (≈ 4.78 µM) in assay [2] (Staphylococcus aureus) and 128 µg/mL (≈ 306 µM) in assay [3] (setting [6]).

With `COc1cc(=O)oc(C=CC=CC=CC(C)=CC2(C)OC(C)C(C)(O)C2O)c1C` (stereo not shown) [Compound 2, citreoviridin], the minimal inhibitory concentration (MIC) in assay [1] is on record as 8 µg/mL (≈ 19.9 µM). The MBC was 16 µg/mL (≈ 39.8 µM) in assay [1], 128 µg/mL (≈ 318 µM) in assay [2] (setting [7]) and 128 µg/mL (≈ 318 µM) in assay [3] (setting [7]).

For `COc1cc(=O)oc(/C=C/C=C/C=C/[C@@]2(C)O[C@]3(C)[C@@H](O)[C@@](C)(O[C@@H]3C)[C@@H]2O)c1C` [Compound 3, epicitreoviridinol], the figures for the MIC in assay [1] (read-out: MIC), in assay [2] (Staphylococcus aureus) and in assay [3] were 64 µg/mL (≈ 153 µM), 1 µg/mL (≈ 2.39 µM) and greater than 128 µg/mL, respectively. Moreover, the minimum bactericidal concentration (MBC) was 128 µg/mL (≈ 306 µM) in assay [1] (read-out: MBC), 2 µg/mL (≈ 4.78 µM) in assay [2] (Staphylococcus aureus) and greater than 128 µg/mL in assay [3] (read-out: MBC).

In the case of `COc1cc(=O)oc(/C=C/C=C/C=C/[C@@]2(C)O[C@@]3(C)[C@H](O)[C@](C)(O[C@H]3C)[C@@H]2O)c1C` [Compound 4, epiisocitreoviridinol], the MIC in assay [1] (read-out: MIC) was 64 µg/mL (≈ 153 µM); in assay [2] (Staphylococcus aureus), 64 µg/mL (≈ 153 µM); in assay [3] it was greater than 128 µg/mL. In addition, the minimum bactericidal concentration (MBC) was 128 µg/mL (≈ 306 µM) in assay [1] (read-out: MBC), 128 µg/mL (≈ 306 µM) in assay [2] (Staphylococcus aureus) and greater than 128 µg/mL in assay [3] (read-out: MBC).

With `CN(C)[C@@H]1C(O)=C(C(N)=O)C(=O)[C@@]2(O)C(O)=C3C(=O)c4c(O)cccc4[C@@](C)(O)[C@H]3C[C@@H]12` [Tetracycline, reference compound], the minimal inhibitory concentration (MIC) was 8 µg/mL (≈ 18 µM) in assay [1] (read-out: MIC); 2 µg/mL (≈ 4.5 µM) in assay [2] (Staphylococcus aureus); “around 2 µg/mL” in assay [2] (broth dilution, 37°C, triplicate); 64 µg/mL (≈ 144 µM) in assay [3] (setting [5]). For the same compound, the values for the MBC in assay [1] (read-out: MBC), in assay [2] (Staphylococcus aureus) and in assay [3] (setting [6]) were 16 µg/mL (≈ 36 µM), 4 µg/mL (≈ 9 µM) and 128 µg/mL (≈ 288 µM), respectively.

Turning to `COc1cc(=O)oc(C(O)C=CC=CC=C(C)C2OC3(C)C(C)OC2(C)C3O)c1C` (stereo not shown) [Compound 7, Penicillstressol], the minimal inhibitory concentration (MIC) was found to be 4 µg/mL (≈ 9.56 µM) in assay [1] (read-out: MIC), 0.5 µg/mL (≈ 1.19 µM) in assay [2] (Staphylococcus aureus) and 64 µg/mL (≈ 153 µM) in assay [3] (setting [5]). The MBC turned out to be 8 µg/mL (≈ 19.1 µM) in assay [1] (read-out: MBC), 1 µg/mL (≈ 2.39 µM) in assay [2] (Staphylococcus aureus) and 128 µg/mL (≈ 306 µM) in assay [3] (setting [6]). Moreover, in assay [4] (Homo sapiens, read-out: IC50), the IC50 is greater than 100 µg/mL.

Turning to `COc1cc(=O)oc(C(O)C=CC=CC=C(C)C2OC3(C)C(C)OC2(C)C3O)c1C` (stereo not shown) [Compound 8, Isopenicillstressol], the values for the MBC in assay [1], in assay [2] (setting [7]) and in assay [3] (setting [7]) were 8 µg/mL (≈ 19.1 µM), 1 µg/mL (≈ 2.39 µM) and 128 µg/mL (≈ 306 µM), respectively. In assay [4], the half-inhibitory concentration (IC50) entry is reported as “above 100 μg/mL”.

For the compound `COc1cc(=O)oc(/C=C/C=C/C=C/[C@@]2(C)O[C@]3(C)[C@@H](O)[C@@](C)(O[C@@H]3C)[C@H]2O)c1C` [Compound 6, citreoviridinol], the MIC in assay [1] (read-out: MIC) was 64 µg/mL (≈ 153 µM); in assay [2] (Staphylococcus aureus), 4 µg/mL (≈ 9.56 µM); in assay [3], greater than 128 µg/mL. The figures for the MBC in assay [1] (read-out: MBC), in assay [2] (Staphylococcus aureus) and in assay [3] (read-out: MBC) were 128 µg/mL (≈ 306 µM), 8 µg/mL (≈ 19.1 µM) and greater than 128 µg/mL, respectively.

Take `COc1cc(=O)oc(C=CC=CC=CC(C)=CC2(C)OC(C)C(C)(O)C2O)c1C` (stereo not shown) [Compound 1, Neocitreoviridin]: the MIC in assay [1] (read-out: MIC) is 4 µg/mL (≈ 9.94 µM); in assay [2] (Staphylococcus aureus), 64 µg/mL (≈ 159 µM); in assay [3] (setting [5]) it was 64 µg/mL (≈ 159 µM). Also, the minimum bactericidal concentration (MBC) in assay [1] (read-out: MBC) worked out at 8 µg/mL (≈ 19.9 µM); in assay [2] (Staphylococcus aureus), 128 µg/mL (≈ 318 µM); in assay [3] (setting [6]) it was 128 µg/mL (≈ 318 µM).
